# Measured values taken from the supplement of paper PMC10307832.
# Tests used:
# Test in all cases: relative viability (nuclei count vs DMSO), 5 days (fraction); higher = more cells survive
# NCI-H1975 = test system: NCI-H1975
# Summary of the method: (§1)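 Nuclei were stained with Hoechst during a one-step fixation (final 0.05% Triton X-100, 1% formaldehyde, 1 ug/ml Hoechst) carried out 5 days after dosing, then counted on 4× images. The cells, lung cancer lines in 1536-well plates, had been dosed by pin tool the day after seeding with one drug alone or a fixed anchor-drug dose plus five library-drug doses (not always all listed) in √10 steps. Relative viability is the nuclei count in treated wells divided by that in vehicle wells, and each value is the median of duplicate plates.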
# CAL-12T = test system: CAL-12T
# Summary of the method: as §1
# LCLC-97TM1 = test system: LCLC-97TM1
# Summary of the method: as §1
# NCI-H1563 = test system: NCI-H1563
# Summary of the method: as §1
# NCI-H1734 = test system: NCI-H1734
# Summary of the method: as §1
# HCC-827 = test system: HCC-827
# Summary of the method: as §1
# H3255 = test system: H3255
# Summary of the method: as §1
# NCI-H1355 = test system: NCI-H1355
# Summary of the method: as §1
# NCI-H661 = test system: NCI-H661
# Summary of the method: as §1
# NCI-H322M = test system: NCI-H322M
# Summary of the method: as §1
# NCI-H1755 = test system: NCI-H1755
# Summary of the method: as §1
# NCI-H520 = test system: NCI-H520
# Summary of the method: as §1
# NCI-H1650 = test system: NCI-H1650
# Summary of the method: as §1
# RERF-LC-KJ = test system: RERF-LC-KJ
# Summary of the method: as §1
# LK-2 = test system: LK-2
# Summary of the method: as §1
# PC-14 = test system: PC-14
# Summary of the method: as §1
# NCI-H2405 = test system: NCI-H2405
# Summary of the method: as §1
# NCI-H2342 = test system: NCI-H2342
# Summary of the method: as §1
# NCI-H2228 = test system: NCI-H2228
# Summary of the method: as §1
# PC-3 [JPC-3] = test system: PC-3 [JPC-3]
# Summary of the method: as §1
# HCC-15 = test system: HCC-15
# Summary of the method: as §1
# EKVX = test system: EKVX
# Summary of the method: as §1
smiles,measurement,setting,value
CC(=O)O[C@@]12CO[C@@H]1C[C@H](O)[C@@]1(C)C(=O)[C@H](O)C3=C(C)[C@@H](OC(=O)[C@H](O)[C@@H](NC(=O)OC(C)(C)C)c4ccccc4)C[C@@](O)([C@@H](OC(=O)c4ccccc4)[C@H]21)C3(C)C [Docetaxel] + COc1cc2c(Oc3ccc(NC(=O)C4(C(=O)Nc5ccc(F)cc5)CC4)cc3F)ccnc2cc1OCCCN1CCOCC1 [Foretinib] (partner 0.25 µM),relative viability,NCI-H1975; first compound 0.0002 µM,0.907
same,relative viability,NCI-H1975; first compound 0.000632 µM,0.586
same,relative viability,NCI-H1975; first compound 0.002 µM,0.353
same,relative viability,NCI-H1975; first compound 0.02 µM,0.105
same,relative viability,CAL-12T; first compound 0.0002 µM,0.979
same,relative viability,CAL-12T; first compound 0.000632 µM,0.729
same,relative viability,CAL-12T; first compound 0.002 µM,0.238
same,relative viability,CAL-12T; first compound 0.006325 µM,0.216
same,relative viability,CAL-12T; first compound 0.02 µM,0.163
same,relative viability,LCLC-97TM1; first compound 0.0002 µM,0.846
same,relative viability,LCLC-97TM1; first compound 0.000632 µM,0.641
same,relative viability,LCLC-97TM1; first compound 0.002 µM,0.697
same,relative viability,LCLC-97TM1; first compound 0.006325 µM,0.218
same,relative viability,LCLC-97TM1; first compound 0.02 µM,0.146
same,relative viability,NCI-H1563; first compound 0.0002 µM,0.988
same,relative viability,NCI-H1563; first compound 0.000632 µM,0.862
same,relative viability,NCI-H1563; first compound 0.002 µM,0.966
same,relative viability,NCI-H1563; first compound 0.006325 µM,0.922
same,relative viability,NCI-H1563; first compound 0.02 µM,0.628
same,relative viability,NCI-H1734; first compound 0.0002 µM,0.776
same,relative viability,NCI-H1734; first compound 0.000632 µM,0.743
same,relative viability,NCI-H1734; first compound 0.002 µM,0.404
same,relative viability,NCI-H1734; first compound 0.006325 µM,0.336
same,relative viability,NCI-H1734; first compound 0.02 µM,0.227
same,relative viability,HCC-827; first compound 0.0002 µM,1.03
same,relative viability,HCC-827; first compound 0.000632 µM,1
same,relative viability,HCC-827; first compound 0.002 µM,0.771
same,relative viability,HCC-827; first compound 0.006325 µM,0.362
same,relative viability,HCC-827; first compound 0.02 µM,0.291
same,relative viability,H3255; first compound 0.0002 µM,0.889
same,relative viability,H3255; first compound 0.000632 µM,0.909
same,relative viability,H3255; first compound 0.002 µM,0.66
same,relative viability,H3255; first compound 0.006325 µM,0.335
same,relative viability,H3255; first compound 0.02 µM,0.266
same,relative viability,NCI-H1355; first compound 0.0002 µM,0.958
same,relative viability,NCI-H1355; first compound 0.000632 µM,0.886
same,relative viability,NCI-H1355; first compound 0.002 µM,0.625
same,relative viability,NCI-H1355; first compound 0.006325 µM,0.276
same,relative viability,NCI-H1355; first compound 0.02 µM,0.243
same,relative viability,NCI-H661; first compound 0.0002 µM,0.989
same,relative viability,NCI-H661; first compound 0.000632 µM,1.02
same,relative viability,NCI-H661; first compound 0.002 µM,0.982
same,relative viability,NCI-H661; first compound 0.006325 µM,0.509
same,relative viability,NCI-H661; first compound 0.02 µM,0.496
same,relative viability,NCI-H322M; first compound 0.0002 µM,0.928
same,relative viability,NCI-H322M; first compound 0.000632 µM,0.949
same,relative viability,NCI-H322M; first compound 0.002 µM,0.956
same,relative viability,NCI-H322M; first compound 0.006325 µM,0.702
same,relative viability,NCI-H322M; first compound 0.02 µM,0.463
same,relative viability,NCI-H1755; first compound 0.0002 µM,0.901
same,relative viability,NCI-H1755; first compound 0.000632 µM,0.88
same,relative viability,NCI-H1755; first compound 0.002 µM,0.564
same,relative viability,NCI-H1755; first compound 0.006325 µM,0.351
same,relative viability,NCI-H1755; first compound 0.02 µM,0.373
same,relative viability,NCI-H520; first compound 0.0002 µM,0.708
same,relative viability,NCI-H520; first compound 0.000632 µM,0.808
same,relative viability,NCI-H520; first compound 0.002 µM,0.341
same,relative viability,NCI-H520; first compound 0.006325 µM,0.218
same,relative viability,NCI-H520; first compound 0.02 µM,0.173
same,relative viability,NCI-H1650; first compound 0.0002 µM,1.07
same,relative viability,NCI-H1650; first compound 0.000632 µM,0.598
same,relative viability,NCI-H1650; first compound 0.006325 µM,0.213
same,relative viability,NCI-H1650; first compound 0.02 µM,0.204
same,relative viability,RERF-LC-KJ; first compound 0.0002 µM,0.882
same,relative viability,RERF-LC-KJ; first compound 0.000632 µM,0.898
same,relative viability,RERF-LC-KJ; first compound 0.002 µM,0.402
same,relative viability,RERF-LC-KJ; first compound 0.006325 µM,0.2
same,relative viability,RERF-LC-KJ; first compound 0.02 µM,0.203
same,relative viability,LK-2; first compound 0.0002 µM,1.02
same,relative viability,LK-2; first compound 0.000632 µM,0.948
same,relative viability,LK-2; first compound 0.002 µM,0.348
same,relative viability,LK-2; first compound 0.006325 µM,0.188
same,relative viability,LK-2; first compound 0.02 µM,0.14
same,relative viability,PC-14; first compound 0.0002 µM,0.886
same,relative viability,PC-14; first compound 0.000632 µM,1.03
same,relative viability,PC-14; first compound 0.002 µM,0.576
same,relative viability,PC-14; first compound 0.006325 µM,0.117
same,relative viability,PC-14; first compound 0.02 µM,0.0977
same,relative viability,NCI-H2405; first compound 0.0002 µM,1.05
same,relative viability,NCI-H2405; first compound 0.000632 µM,1
same,relative viability,NCI-H2405; first compound 0.002 µM,0.6
same,relative viability,NCI-H2405; first compound 0.006325 µM,0.402
same,relative viability,NCI-H2405; first compound 0.02 µM,0.306
same,relative viability,NCI-H2342; first compound 0.0002 µM,1.17
same,relative viability,NCI-H2342; first compound 0.000632 µM,0.948
same,relative viability,NCI-H2342; first compound 0.002 µM,0.638
same,relative viability,NCI-H2342; first compound 0.006325 µM,0.661
same,relative viability,NCI-H2342; first compound 0.02 µM,0.502
same,relative viability,NCI-H2228; first compound 0.0002 µM,0.785
same,relative viability,NCI-H2228; first compound 0.000632 µM,0.222
same,relative viability,NCI-H2228; first compound 0.002 µM,0.185
same,relative viability,NCI-H2228; first compound 0.006325 µM,0.145
same,relative viability,NCI-H2228; first compound 0.02 µM,0.137
same,relative viability,PC-3 [JPC-3]; first compound 0.0002 µM,0.962
same,relative viability,PC-3 [JPC-3]; first compound 0.000632 µM,0.945
same,relative viability,PC-3 [JPC-3]; first compound 0.002 µM,0.544
same,relative viability,PC-3 [JPC-3]; first compound 0.006325 µM,0.179
same,relative viability,PC-3 [JPC-3]; first compound 0.02 µM,0.149
same,relative viability,HCC-15; first compound 0.0002 µM,0.906
same,relative viability,HCC-15; first compound 0.000632 µM,0.472
same,relative viability,HCC-15; first compound 0.002 µM,0.233
same,relative viability,HCC-15; first compound 0.006325 µM,0.27
same,relative viability,HCC-15; first compound 0.02 µM,0.162
same,relative viability,EKVX; first compound 0.0002 µM,1.07
same,relative viability,EKVX; first compound 0.000632 µM,0.887
same,relative viability,EKVX; first compound 0.002 µM,0.411
same,relative viability,EKVX; first compound 0.006325 µM,0.234
same,relative viability,EKVX; first compound 0.02 µM,0.13
